Measured values as given in PMC9223267, “Serine hydroxymethyltransferase as a potential target of antibacterial agents acting synergistically with one-carbon metabolism-related inhibitors” (Communications Biology, 2022).
Several values for one entry are separate records, joined by “and”; a condition that tells them apart may be missing. Equal values may be shown once. Entries after “also recorded” stand apart in the source; their conditions may differ. Read-outs that look alike come from different tables or passages of the source.

Columns and labels:
E. faecalis = assay: Antibacterial activity evaluation (turbidity, OD600); type: cell-based, Enterococcus faecalis (JCM7783); conditions: Enterococcus faecalis, E. faecalis JCM7783
Protocol: (§1) E. faecium and E. faecalis were diluted to turbidity equivalents that matched 1.0 McFarland (McF) standard in distilled water (S. aureus and E. coli were also diluted to 0.5 McF), and additionally diluted 1:200 in Mueller–Hinton (MH) broth. The designated concentrations of the tested compounds were prepared by ten-fold serial dilutions directly in 96-well microtiter plates (IWAKI, Shizuoka, Japan), as previously described. […] The other compounds were serially diluted from 20 μM downwards (final concentration, 10 μM). […] Positive control wells included bacteria without any compound, and the negative control wells only contained MH broth. […] The optical density at 600 nm (OD600) was measured using a GloMax microtiter plate reader (Promega, WI, USA), and the EC50 values of each test compound and standard error were calculated by Microsoft Excel function, AVERAGE and STDEV/SQRT.

S. aureus = assay: as above; type: cell-based, Staphylococcus aureus (ATCC29213); conditions: Staphylococcus aureus, S. aureus ATCC29213
Protocol: as §1

E. faecium [1] = assay: Bacterial viability assay (Microbial Viability Assay Kit-WST, OD450); type: cell-based, Enterococcus faecium; conditions: for Relative bacterial viability: single values
Protocol: Living E. faecium were determined using the Microbial Viability Assay Kit-WST (DOJINDO, Tokyo, Japan). […] Positive control wells included bacteria seeded into MH broth without compounds, and the negative control wells contained MH broth only. […] Five microlitres of the colouring reagent were added to each well of the 96-well plate every 2 h after starting incubation with each compound.

E. faecium [2] = assay: Antibacterial activity evaluation (turbidity, OD600); type: cell-based, Enterococcus faecium (JCM5804); conditions: Enterococcus faecium
Protocol: as §1

efmSHMT [3] = target: efmSHMT (Enterococcus faecium, UniProt I3U4H4, M1V); assay: biochemical; type: binding; conditions: 5 μM efmSHMT; 10 mM Gly and 100 μM Ser; Cheng-Prusoff
Protocol: After adding Me-THF, the efmSHMT solution was incubated for 30 min at room temperature. The optical density at 500 and 600 nm (OD500 and OD600) were then measured using a nanodrop spectrophotometer[24],[25]. OD600 was used as the background. After detection, each concentration of inhibitor was added to the efmSHMT solution and incubated for 30 min at room temperature. OD500 and OD600 were measured. The relative OD500 intensity was calculated as relative OD500 = (OD500 – OD600)/(MAXOD500 – OD600), where MAXOD500 is the average OD500 value in the presence of 1000, 2000 and 4000 μM Me-THF without inhibitors. […] Here, IC50 is the concentration of inhibitor added to the efmSHMT solution and [Me-THF] is the EC50 in the presence of the inhibitor concentration. [EC50 without inhibitor] is the EC50 of Me-THF in the absence of the inhibitor.

E. faecium [4] = assay: Antibacterial assay with an excess concentration of biomolecules (Ser, Gly, inosine, dT, FA); type: cell-based, Enterococcus faecium (JCM5804)
Protocol: as §1
The ratio of the control EC50 (no competitors added) to the experimental EC50 (competitors added) was calculated for each test substance.

efmSHMT [5] = type: binding, Enterococcus faecium; conditions: DSF; final drug concentration 50 μM
Protocol: Protein samples were prepared as 20 μL aliquots containing 0.1 mg/mL protein (efmSHMT/ecSHMT), 1 μL of the ligand in DMSO (final drug concentration, 50 μM) and 2% or 4% SYPRO Orange (Invitrogen, MA, USA). […] Melting points were evaluated as the half-point of the maximum intensity of each curve.

E. coli = assay: Antibacterial activity evaluation (turbidity, OD600); type: cell-based, Escherichia coli (ATCC25922); conditions: Escherichia coli, E. coli ATCC25922
Protocol: as §1

Caski cells = assay: Cell cytotoxicity assay (Cell Counting Kit-8, 5 days); type: cell-based, human; conditions: with each cell line (Caski, Hep-2 and Calu-3)
Protocol: After serial dilution, 100 μL of FBS-containing medium including the cells was added to each well of the plate. […] All CC50 determining assays were conducted in duplicate or triplicate[39],[40].

[6] = read-out: pEC50 ± S.E. (converted)
[7] = Enterococcus faecium, JCM5804, E. faecium JCM5804, 1 mM Inosine, read-out: EC50
[8] = Enterococcus faecium, JCM5804, E. faecium JCM5804, 1 mM Inosine, read-out: pEC50 ± S.E. (converted)
[9] = Enterococcus faecium, JCM5804, E. faecium JCM5804, 1 mM deoxythymidine, read-out: EC50
[10] = Enterococcus faecium, JCM5804, E. faecium JCM5804, 1 mM deoxythymidine, read-out: pEC50 ± S.E. (converted)
[11] = Enterococcus faecium, JCM5804, E. faecium JCM5804, 10 mM Glycine, read-out: EC50
[12] = Enterococcus faecium, JCM5804, E. faecium JCM5804, 10 mM Glycine, read-out: pEC50 ± S.E. (converted)
[13] = Enterococcus faecium, JCM5804, E. faecium JCM5804, 100 mM Serine, read-out: EC50
[14] = Enterococcus faecium, JCM5804, E. faecium JCM5804, 100 mM Serine, read-out: pEC50 ± S.E. (converted)
[15] = Enterococcus faecium, JCM5804, E. faecium JCM5804, 0.1 M folate, read-out: EC50
[16] = Enterococcus faecium, JCM5804, E. faecium JCM5804, 0.1 M folate, read-out: pEC50 ± S.E. (converted)

Sequence of efmSHMT (Enterococcus faecium, UniProt I3U4H4, M1V) (I3U4H4 whole entry M1V): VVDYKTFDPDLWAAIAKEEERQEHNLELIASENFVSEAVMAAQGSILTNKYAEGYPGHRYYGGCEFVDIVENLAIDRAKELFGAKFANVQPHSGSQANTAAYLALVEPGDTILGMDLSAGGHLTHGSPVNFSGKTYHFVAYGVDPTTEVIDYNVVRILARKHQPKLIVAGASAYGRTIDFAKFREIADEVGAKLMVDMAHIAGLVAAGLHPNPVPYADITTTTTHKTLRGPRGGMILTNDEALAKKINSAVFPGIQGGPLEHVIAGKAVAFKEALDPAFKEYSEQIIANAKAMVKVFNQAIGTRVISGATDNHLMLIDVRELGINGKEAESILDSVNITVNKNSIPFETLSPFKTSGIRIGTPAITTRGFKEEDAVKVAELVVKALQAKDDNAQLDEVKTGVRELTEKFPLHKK

SMILES	EC50 (E. faecalis; read-out: EC50) [µM]	EC50 (E. faecalis; [6]) [µM]	EC50 (S. aureus; read-out: EC50) [µM]	EC50 (S. aureus; [6]) [µM]	Ki (efmSHMT [3])	EC50 (E. faecium [4]; [7]) [µM]	EC50 (E. faecium [4]; [8]) [µM]	EC50 (E. faecium [4]; [9]) [µM]	EC50 (E. faecium [4]; [10]) [µM]	EC50 (E. faecium [4]; [11]) [µM]	EC50 (E. faecium [4]; [12]) [µM]	EC50 (E. faecium [4]; [13]) [µM]	EC50 (E. faecium [4]; [14]) [µM]	EC50 (E. faecium [4]; [15]) [µM]	EC50 (E. faecium [4]; [16]) [µM]	ΔTm (thermal stability of efmSHMT) (efmSHMT [5])	EC50 (E. coli; read-out: EC50) [µM]	EC50 (E. coli; [6]) [µM]	selectivity index (S.I.): CC50 against each cell line / EC50 against E. faecium (Caski cells)	further results
CN(Cc1cnc2nc(N)nc(N)c2n1)c1ccc(C(=O)N[C@@H](CCC(=O)O)C(=O)O)cc1 [MTX, methotrexate]	14	15.8	> 100	> 100	did not change the OD500; also recorded: did not bind	0.0024	0.00251	> 100	> 100	0.0028	0.00251	0.0026	0.00251	8.5	7.94	did not stabilise efmSHMT significantly	> 100	> 100	less selective than (+)-SHIN-1, TMP and PMX	Relative bacterial viability (E. faecium [1]; 2 nM, 0 hours): 0.02233 and 0.0177 and 0.02678 and 0.02266 and 0.01761 and 0.017 and 0.0195 and 0.01799; Relative bacterial viability (E. faecium [1]; 2 nM, 2 hours): 0.03007 and 0.03198 and 0.04012 and 0.03501 and 0.02569 and 0.02735 and 0.02947 and 0.02784; Relative bacterial viability (E. faecium [1]; 2 nM, 6 hours): 0.8015 and 0.7552 and 0.8948 and 0.8943 and 0.5687 and 0.5754 and 0.5661 and 0.5425; Relative bacterial viability (E. faecium [1]; 2 nM, 8 hours): 0.6487 and 0.7535 and 0.8184 and 0.7635 and 0.7144 and 0.6621 and 0.6673 and 0.7812; Relative bacterial viability (E. faecium [1]; 2 nM, 10 hours): 0.7053 and 0.6673 and 0.7036 and 0.6902; Relative bacterial viability (E. faecium [1]; 2 nM, 12 hours): 0.8527 and 0.9211 and 0.863 and 0.9139 and 0.786 and 0.828 and 0.8102 and 0.8671; Relative bacterial viability (E. faecium [1]; 20 nM, 0 hours): 0.02944 and 0.02382 and 0.02242 and 0.01876 and 0.02362 and 0.02115 and 0.02309 and 0.02203; Relative bacterial viability (E. faecium [1]; 20 nM, 2 hours): 0.04282 and 0.03899 and 0.03091 and 0.03386 and 0.03007 and 0.02907 and 0.03321 and 0.0351; Relative bacterial viability (E. faecium [1]; 20 nM, 4 hours): 0.09761 and 0.08481 and 0.06333 and 0.08156 and 0.05837 and 0.05915 and 0.09197 and 0.0766; Relative bacterial viability (E. faecium [1]; 20 nM, 6 hours): 0.09779 and 0.1224 and 0.09629 and 0.09367 and 0.1125 and 0.1318 and 0.1324 and 0.1243; Relative bacterial viability (E. faecium [1]; 20 nM, 8 hours): 0.09766 and 0.1007 and 0.1109 and 0.1082 and 0.07161 and 0.0792 and 0.1047 and 0.1064; Relative bacterial viability (E. faecium [1]; 20 nM, 10 hours): 0.1166 and 0.1064 and 0.08667 and 0.1003 and 0.08673 and 0.1012 and 0.1144 and 0.09737; Relative bacterial viability (E. faecium [1]; 20 nM, 12 hours): 0.09054 and 0.1107 and 0.09534 and 0.1014 and 0.09177 and 0.09711 and 0.09672 and 0.1035; EC50 (E. faecium [1]; Enterococcus faecium, relative bacterial viability after 14 h incubation): 0.0084 µM; EC50 (E. faecium [2]; JCM5804, E. faecium JCM5804, read-out: EC50): 0.0036 µM; EC50 (E. faecium [2]; JCM5804, E. faecium JCM5804, read-out: pEC50 ± S.E. (converted)): 0.00398 µM
Cc1n[nH]c2c1C(c1cc(N3CCCC3)cc(C(F)(F)F)c1)(C(C)C)C(C#N)=C(N)O2 (centres unmarked) [SHMT-IN-2]	> 100	> 100	≥ 100	≥ 100	did not change the OD500; also recorded: did not bind	3.1	3.16	2.9	3.16	3	3.16	4	3.98	2.9	3.16	did not stabilise efmSHMT significantly	> 100	> 100	less selective than (+)-SHIN-1, TMP and PMX	Relative bacterial viability (E. faecium [1]; 40 μM, 0 hours): 0.01862 and 0.0174 and 0.0205 and 0.01931 and 0.02646 and 0.02349 and 0.02966 and 0.03101; Relative bacterial viability (E. faecium [1]; 40 μM, 2 hours): 0.03093 and 0.0302 and 0.02505 and 0.02814 and 0.02877 and 0.02998 and 0.036 and 0.03921; Relative bacterial viability (E. faecium [1]; 40 μM, 6 hours): 0.3579 and 0.3453 and 0.3941 and 0.3482 and 0.392 and 0.3797 and 0.4394 and 0.4307; Relative bacterial viability (E. faecium [1]; 40 μM, 8 hours): 0.4949 and 0.5317 and 0.4381 and 0.3998 and 0.3519 and 0.3235 and 0.4823 and 0.3754; Relative bacterial viability (E. faecium [1]; 40 μM, 10 hours): 0.5237 and 0.542 and 0.4699 and 0.39 and 0.5132 and 0.4488 and 0.4691 and 0.4904; Relative bacterial viability (E. faecium [1]; 40 μM, 12 hours): 0.55 and 0.5489 and 0.5001 and 0.5313 and 0.5571 and 0.5294 and 0.6254 and 0.5482; Relative bacterial viability (E. faecium [1]; 80 μM, 0 hours): 0.02012 and 0.02269 and 0.02791 and 0.02552 and 0.02349 and 0.02305 and 0.03984 and 0.03245; Relative bacterial viability (E. faecium [1]; 80 μM, 2 hours): 0.03305 and 0.03431 and 0.03897 and 0.0377 and 0.0302 and 0.03755 and 0.04307 and 0.03606; Relative bacterial viability (E. faecium [1]; 80 μM, 4 hours): 0.03849 and 0.03773 and 0.03537 and 0.04204 and 0.0354 and 0.0391 and 0.04337 and 0.03653; Relative bacterial viability (E. faecium [1]; 80 μM, 6 hours): 0.04463 and 0.04595 and 0.05326 and 0.05339 and 0.04373 and 0.04075 and 0.04467 and 0.04119; Relative bacterial viability (E. faecium [1]; 80 μM, 8 hours): 0.04711 and 0.04935 and 0.05233 and 0.0524 and 0.04018 and 0.04838 and 0.04621 and 0.04757; Relative bacterial viability (E. faecium [1]; 80 μM, 10 hours): 0.04986 and 0.05353 and 0.04783 and 0.04892; Relative bacterial viability (E. faecium [1]; 80 μM, 12 hours): 0.04784 and 0.03996 and 0.04751 and 0.04436 and 0.04726 and 0.03481 and 0.04716 and 0.0494; EC50 (bacterial viability) (E. faecium [1]; relative bacterial viability after 14 h incubation): weaker activity than the turbidity detection result; EC50 (E. faecium [2]; E. faecium JCM5804, read-out: EC50): 2.9 µM; EC50 (E. faecium [2]; E. faecium JCM5804, read-out: pEC50 ± S.E. (converted)): 3.16 µM; EC50 (E. faecium [4]; E. faecium JCM5804, 0.1 M folate): independent of FA
